Values after ≈ are worked out from the molar mass of the structure shown. Read-outs that look alike come from different tables or passages of the source.
Tests used:
[1] = tested on: S. aureus, MRSA 1A-218, 1A-318, 1B-374, 1B-315, 1B-185, 1B387 and MSSA ATCC-6538, ATCC-29213; assay: MIC by standard microdilution method against S. aureus (MRSA and MSSA strains); format: cell-based; conditions: Staphylococcus aureus; against all 8 strains of S. aureus tested except where indicated; microdilution, Ca-MHB, 35° C., 24 hr; read-out: MIC
Method: A standard microdilution method (NCCLS, 2000; Document M7-A5) was used to determine the minimum inhibitory concentrations (MICs) against S. aureus, methicillin-resistant strains (MRSA); 1A-218, 1A-318, 1B-374, 1B-315, 1B-185, 1B387 (Simor et al. 1999 Can Commun Dis Rep; 25:105-108) and methicillin-sensitive strains (MSSA); ATCC-6538 and ATCC-29213. The MICs of some compounds were also determined against other Gram-positive bacteria: Enterococcus faecium (ATCC 51559), Enterococcus faecalis (ATCC-51299, ATCC-29212) and Staphylococcus epidermidis (ATCC-35983).
Mueller-Hinton broth (MHB) is recommended as the medium of choice for susceptibility testing of commonly isolated, rapidly growing aerobic organisms such as the Gram-positive bacteria included in this study. A “cation-adjusted Mueller-Hinton broth” (Ca-MHB) was prepared by first preparing standard MHB from a dehydrated base as recommended by the manufacturer.
Single colonies from fresh agar plates of the different bacterial cultures were sub-cultured overnight in 3 ml of Tryptic soy broth (TSB) at 37° C. with shaking at 250 RPM. After 18-20 hours of incubation, the absorbance at λ=600 nm (OD600) were determined for each culture and adjusted to a final OD600=0.1 (4.2×10^7 cfu/ml). Bacterial suspensions were then diluted 1:200 in sterile Ca-MHB for the in vitro susceptibility test, with each well of the microtitre plate containing approximately 2×10^5 cfu/ml.
Stock solutions of the different test compounds were prepared at concentrations of 1,280 μg/ml, 640 μg/ml, or 320 μg/ml in 50% DMSO (dimethyl sulfoxide). Serial two-fold dilutions were then prepared in 50% DMSO (the working concentrations were 1:10 of the stock concentrations in 100 μl culture suspensions). The filled microtitre plates were sealed in plastic bags and incubated at 35° C. for 24 hr in an ambient air incubator with shaking at 250 RPM. MIC values were determined as the lowest concentration where complete inhibition of the visible bacterial growth was observed by the unaided eye and confirmed by the measurement of the optical density (OD600).

MRSA 1B-387 = assay: In vivo anti-bacterial activity, ICR mice inoculated I.P. with MRSA, oral treatment; conditions: Staphylococcus aureus
Method: For in vivo studies, groups of 5-10 female ICR mice (6-7 weeks) were inoculated intraperitonially with 3-8×10^7 CFU MRSA 1B-387 per mouse in 400 μl of 5% mucin. The test compounds at concentrations of 50 or 100 mg/kg were administered orally immediately after the bacterial inoculation and again 3 hours later. The selected dosages were administered twice daily throughout the experiment. The efficacy of the treatment was evaluated by comparison of mortality between the experimental and control groups (Table 5).

[2] = tested on: Candida albicans (ATCC 24433); assay: In vitro anti-fungal activity, microdilution against Candida albicans; format: cell-based; conditions: for inhibition at 25 µg/mL: ATCC24433, C. albicans ATCC 24433, compound 25 μg/ml
Method: A microdilution method was used to determine the anti-fungal activity of different test compounds against Candida albicans (ATCC 24433) at 25 μg/ml. RPMI-1640 broth is recommended as the medium of choice for susceptibility testing of C. albicans (NCCLS, 2002; Document M27-A2) and was used in this study. The broth was buffered to pH 7.0 and then sterilized using a 250 ml vacuum driven disposable 0.45 um filtration system.
C. albicans was sub-cultured from a −80° C. stock onto Sabouraud dextrose agar and incubated for 24-48 hrs at 37° C. The fungi inoculum was prepared by picking five colonies of ˜1 mm in diameter from 24-48 hr old cultures. The colonies were then suspended in 5 ml of sterile normal saline (8.5 g/L NaCl; 0.85% saline) diluted 1:50 and further diluted 1:20 with medium to obtain two-fold inoculum (1-5×10^3 cfu/ml). […] The microtitre plates were then sealed in plastic bags and incubated at 35° C. for 24-48 hrs in an ambient air incubator with shaking at 250 RPM.
Inhibition of visible growth of C. albicans in the microtitre plate wells was assessed by the unaided eye and confirmed by OD600 reading. […] The MIC values of compounds with significant activity are also included.

[3] = 24 h, read-out: Inhibition (%) after 24 h
[4] = 48 h, read-out: Inhibition (%) after 48 h

SMILES | MIC [1] [µg/mL] | also measured
CC(=O)n1c(-c2c(C)n(C(C)=O)c3ccccc23)nc(-c2ccccc2)c1-c1ccccc1 [Compound 5] | > 128 | responders at 100 mg/kg (MRSA 1B-387): 20%; responders at 100 mg/kg (MRSA 1B-387; read-out: Survival %): 20%; inhibition at 25 µg/mL [2, 3]: 0%; inhibition at 25 µg/mL [2, 4]: 0%
Brc1ccc2[nH]cc(-c3nc(-c4ccccc4)c(-c4ccccc4)[nH]3)c2c1 [Compound 6] | 4 (≈ 9.65 µM) | responders at 100 mg/kg (MRSA 1B-387): 40%; responders at 100 mg/kg (MRSA 1B-387; read-out: Survival %): 40%; inhibition at 25 µg/mL [2, 3]: 0%; inhibition at 25 µg/mL [2, 4]: 0%
Cc1[nH]c2ccccc2c1-c1nc(-c2ccc(F)cc2)c(-c2ccc(F)cc2)[nH]1 [Compound 7] | 4 to 16 (≈ 10.4 to 41.5 µM) | –
Fc1ccc(-c2nc(-c3c[nH]c4ccc(Br)cc34)[nH]c2-c2ccc(F)cc2)cc1 [Compound 8] | 2 (≈ 4.44 µM) | responders at 100 mg/kg (MRSA 1B-387): 20%; responders at 100 mg/kg (MRSA 1B-387; read-out: Survival %): 20%; MIC ([2]; ATCC24433, C. albicans ATCC 24433): 8 µg/mL (≈ 17.8 µM); inhibition at 25 µg/mL [2, 3]: 100%; inhibition at 25 µg/mL [2, 4]: 100%
COc1ccc(-c2nc(-c3c(C)[nH]c4ccccc34)[nH]c2-c2ccc(OC)cc2)cc1 [Compound 9] | 8 (≈ 19.5 µM) | –
COc1ccc(-c2nc(-c3c[nH]c4ccc(Br)cc34)[nH]c2-c2ccc(OC)cc2)cc1 [Compound 10] | 4 (≈ 8.43 µM) | responders at 100 mg/kg (MRSA 1B-387): 100%; responders at 100 mg/kg (MRSA 1B-387; read-out: Survival %): 100%; inhibition at 25 µg/mL [2, 3]: 0%; inhibition at 25 µg/mL [2, 4]: 0%
Cc1[nH]c2ccccc2c1-c1nc(-c2ccccn2)c(-c2ccccn2)[nH]1 [Compound 15] | > 128 | –
COc1ccccc1-c1nc(-c2c(C)[nH]c3ccccc23)[nH]c1-c1ccccc1OC [Compound 17] | 16 (≈ 39.1 µM) | –
Clc1ccc(-c2nc(-c3c[nH]c4ccc(Br)cc34)[nH]c2-c2ccc(Cl)cc2)cc1 [Compound 20] | 2 to 4 (≈ 4.14 to 8.28 µM) | –
Cc1[nH]c2ccccc2c1-c1nc(-c2cccc(Cl)c2)c(-c2cccc(Cl)c2)[nH]1 [Compound 21] | 8 to 16 (≈ 19.1 to 38.2 µM) | –
Cc1ccc(-c2nc(-c3c(C)[nH]c4ccccc34)[nH]c2-c2ccc(C)cc2)cc1 [Compound 23] | 4 to 8 (≈ 10.6 to 21.2 µM) | –
Cc1[nH]c2ccccc2c1-c1nc(-c2cccs2)c(-c2cccs2)[nH]1 [Compound 25] | 32 to 64 (≈ 88.5 to 177 µM) | –
Brc1ccc2[nH]cc(-c3nc(-c4cccs4)c(-c4cccs4)[nH]3)c2c1 [Compound 26] | 2 (≈ 4.69 µM) | –
Cc1[nH]c2ccccc2c1-c1nc(-c2ccncc2)c(-c2ccc(F)cc2)[nH]1 [Compound 27] | 32 to 64 (≈ 86.9 to 174 µM) | –
Fc1ccc(-c2[nH]c(-c3c[nH]c4ccc(Br)cc34)nc2-c2ccncc2)cc1 [Compound 28] | 2 (≈ 4.62 µM) | –
Fc1ccc(-c2[nH]c(-c3c[nH]c4ccccc34)nc2-c2ccccc2)cc1 [Compound 37] | > 128 | –
Cc1[nH]c2ccccc2c1-c1nc(-c2ccc(Oc3ccccc3)cc2)c(-c2ccc(Oc3ccccc3)cc2)[nH]1 [Compound 38] | > 128 | –
Brc1ccc2[nH]cc(-c3nc(-c4ccc(Oc5ccccc5)cc4)c(-c4ccc(Oc5ccccc5)cc4)[nH]3)c2c1 [Compound 39] | > 128 | –
Cc1[nH]c2ccccc2c1-c1nc(-c2ccc(-c3ccccc3)cc2)c(-c2ccc(-c3ccccc3)cc2)[nH]1 [Compound 40] | > 128 | –
Cn1cc(-c2nc3c4ccccc4c4ccccc4c3[nH]2)c2ccccc21 [Compound 47] | > 128 | –
Brc1ccc2[nH]cc(-c3nc(-c4ccccc4)c(-c4ccc(-c5ccccc5)cc4)[nH]3)c2c1 [Compound 48] | 4 to 8 (≈ 8.16 to 16.3 µM) | –
c1ccc(-c2ccc(-c3[nH]c(-c4c[nH]c5ccccc45)nc3-c3ccccc3)cc2)cc1 [Compound 49] | 4 (≈ 9.72 µM) | –
Brc1ccc2[nH]cc(-c3nc(-c4ccccc4)c(-c4ccc(N5CCCCC5)cc4)[nH]3)c2c1 [Compound 50] | > 64 | –
Clc1ccc(-c2nc(-c3c[nH]c4ccc(Br)cc34)[nH]c2-c2ccc(-c3ccccc3)cc2)cc1 [Compound 51] | 16 (≈ 30.5 µM) | –
Brc1ccc2[nH]cc(-c3nc4c5cc(I)ccc5c5ccc(I)cc5c4[nH]3)c2c1 [Compound 52] | > 64 | –

SMILES | MIC [1] [µg/mL] | also measured
Ic1ccc2c3ccccc3c3[nH]c(-c4c[nH]c5ccccc45)nc3c2c1 [Compound 53] | 1 (≈ 2.18 µM) | –
c1ccc(-c2[nH]c(-c3c[nH]c4ccccc34)nc2-c2cccc3ccccc23)cc1 [Compound 54] | 2 to 4 (≈ 5.19 to 10.4 µM) | –
c1ccc(-c2[nH]c(-c3c[nH]c4ccccc34)nc2-c2ccc3ccccc3c2)cc1 [Compound 55] | 2 (≈ 5.19 µM) | –
Ic1cccc(-c2nc(-c3c[nH]c4ccccc34)[nH]c2-c2cccc(I)c2)c1 [Compound 56] | 1 (≈ 1.7 µM) | –
COc1ccc(-c2nc(-c3ccc(O)cc3)[nH]c2-c2ccc(OC)cc2)cc1 [Compound 57] | 16 (≈ 43 µM) | –
Oc1ccc(-c2nc(-c3ccc(Br)cc3)c(-c3ccccc3)[nH]2)cc1 [Compound 58] | 4 (≈ 10.2 µM) | –
O=C(O)c1ccc(-c2nc(-c3ccc(Br)cc3)c(-c3ccccc3)[nH]2)cc1 [Compound 59] | 32 (≈ 76.3 µM) | –
O=C(O)c1ccc(-c2nc(-c3ccccc3)c(-c3cccc4ccccc34)[nH]2)cc1 [Compound 60] | 64 (≈ 164 µM) | –
Oc1cccc(-c2nc(-c3ccccc3)c(-c3cccc4ccccc34)[nH]2)c1 [Compound 61] | 8 (≈ 22.1 µM) | –
Oc1cccc(-c2nc(-c3ccc(-c4ccccc4)cc3)c(-c3ccccc3)[nH]2)c1 [Compound 62] | 2 (≈ 5.15 µM) | –
Oc1ccc(-c2nc(-c3ccc(-c4ccccc4)cc3)c(-c3ccccc3)[nH]2)cc1 [Compound 63] | 2 (≈ 5.15 µM) | –
Cc1ccc(-c2nc(-c3cccc(O)c3)[nH]c2-c2ccccc2Br)cc1 [Compound 64] | 4 (≈ 9.87 µM) | –
O=C(O)c1ccc(-c2nc(-c3ccc(Br)cc3)c(-c3ccc(Br)cc3)[nH]2)cc1 [Compound 65] | 16 (≈ 32.1 µM) | –
COc1cc(-c2nc(-c3ccc(Cl)cc3)c(-c3ccc(Cl)cc3)[nH]2)cc(OC)c1O [Compound 66] | 2 (≈ 4.53 µM) | –
Cc1ccc([N+](=O)[O-])cc1-c1[nH]c(-c2cccc(O)c2)nc1-c1ccccc1 [Compound 67] | 16 (≈ 43.1 µM) | –
Oc1ccc(-c2nc(-c3cccc(Cl)c3Cl)c(-c3ccccc3)[nH]2)cc1O [Compound 69] | 16 (≈ 40.3 µM) | –
COc1ccc(-c2nc(-c3cccc(Cl)c3Cl)c(-c3ccccc3)[nH]2)cc1O [Compound 70] | 8 (≈ 19.5 µM) | –
Cc1ccc(C)c(-c2nc(-c3cccc(O)c3)[nH]c2-c2ccccc2)c1 [Compound 71] | 8 (≈ 23.5 µM) | –
O=C(O)c1ccc(-c2nc(-c3ccc4c(c3)-c3cc(-c5[nH]c(-c6ccc(C(=O)O)cc6)nc5-c5ccccc5)ccc3C4=O)c(-c3ccccc3)[nH]2)cc1 [Compound 72] | 0.5 to 2 (≈ 0.709 to 2.84 µM) | –
COc1ccc(-c2nc(-c3ccccc3)c(-c3ccccc3)[nH]2)c(OC)c1 [Compound 73] | > 128 | –
COc1ccc(-c2nc(-c3ccc(F)cc3)c(-c3ccccc3)[nH]2)c(OC)c1 [Compound 74] | > 128 | –
Cc1[nH]c2ccc(N)cc2c1-c1nc(-c2ccc(F)cc2)c(-c2ccccc2)[nH]1 [Compound 75] | 32 (≈ 83.7 µM) | –
Fc1ccc(-c2nc(-c3ccc4[nH]ccc4c3)[nH]c2-c2ccccc2)cc1 [Compound 76] | > 128 | –
Cc1[nH]c2ccc([N+](=O)[O-])cc2c1-c1nc(-c2ccc(F)cc2)c(-c2ccccc2)[nH]1 [Compound 77] | > 128 | –
COc1cccc(-c2nc(-c3c[nH]c4ccc(Br)cc34)[nH]c2-c2cccc(OC)c2)c1 [Compound 84] | 2 (≈ 4.22 µM) | –
